Data reported in ChEMBL document CHEMBL3885881, “DrugMatrix”.

Organism: Rattus norvegicus
Experiment: DrugMatrix - Regimen: Daily Repeat
Type: toxicity, organism-based, Sprague-Dawley
Design: regimen Daily Repeat, gender Male, age 6-8 weeks
Conditions: in vivo, 0 mg/kg, dose level Control; for ABSOLUTE BASOPHIL / ABSOLUTE EOSINOPHIL / ABSOLUTE LYMPHOCYTE / ABSOLUTE MONOCYTE / ABSOLUTE SEGMENTED NEUTROPHIL / BASOPHIL / EOSINOPHIL / ERYTHROCYTE COUNT / HEMATOCRIT / HEMOGLOBIN / LEUKOCYTE COUNT / LYMPHOCYTE / MEAN CORPUSCULAR HEMOGLOBIN / MEAN CORPUSCULAR VOLUME / MONOCYTE / NEUTROPHIL / NUCLEATED RED BLOOD CELLS / PLATELET COUNT: tissue Blood; for ALANINE AMINOTRANSFERASE / ALBUMIN / ALKALINE PHOSPHATASE / ASPARTATE AMINOTRANSFERASE / BLOOD UREA NITROGEN / CARBON DIOXIDE / CHLORIDE / CHOLESTEROL / CREATINE PHOSPHOKINASE / CREATININE / GLUCOSE / LACTATE DEHYDROGENASE / LIPASE / PHOSPHORUS / POTASSIUM / SODIUM / TOTAL BILIRUBIN / TOTAL PROTEIN / URIC ACID: tissue Plasma
[1] = po, 72 h, route oral GAVAGE, time 3 day, vehicle 100 % WATER
[2] = po, 120 h, route oral GAVAGE, time 5 day, vehicle 100 % WATER
[3] = sc, 72 h, route subcutaneous, time 3 day, […]
[4] = sc, 120 h, route subcutaneous, time 5 day, […]

CC(C)(C)CC(C)(C)c1ccc(OCCOCC[N+](C)(C)Cc2ccccc2)cc1.[Cl-] [BENZETHONIUM CHLORIDE]
ABSOLUTE BASOPHIL [1]: 0 CELLS/uL | ABSOLUTE EOSINOPHIL [1]: 20.17 CELLS/uL | ABSOLUTE LYMPHOCYTE [1]: 12371.67 CELLS/uL | ABSOLUTE MONOCYTE [1]: 166 CELLS/uL | ABSOLUTE SEGMENTED NEUTROPHIL [1]: 1292.17 CELLS/uL | BASOPHIL [1]: 0% | EOSINOPHIL [1]: 0.17% | ERYTHROCYTE COUNT [1]: 5.46 x10E6/uL | HEMATOCRIT [1]: 34.38% | HEMOGLOBIN [1]: 13.32 G/DL | LEUKOCYTE COUNT [1]: 13.85 x10E3/uL | LYMPHOCYTE [1]: 88.5% | MEAN CORPUSCULAR HEMOGLOBIN [1]: 24.42 pg | MEAN CORPUSCULAR VOLUME [1]: 63.07 fL | MONOCYTE [1]: 1.17% | NEUTROPHIL [1]: 10.17% | NUCLEATED RED BLOOD CELLS [1]: 0.17 /100WBC | PLATELET COUNT [1]: 1193.5 x10E3/uL | ALANINE AMINOTRANSFERASE [1]: 54.5 u/L | ALBUMIN [1]: 4.02 G/DL | ALKALINE PHOSPHATASE [1]: 346.5 u/L | ASPARTATE AMINOTRANSFERASE [1]: 103.17 u/L | BLOOD UREA NITROGEN [1]: 16.5 mg/dL | CARBON DIOXIDE [1]: 29.83 mmol/L | CHLORIDE [1]: 99.5 MEQ/L | CHOLESTEROL [1]: 72.5 mg/dL | CREATINE PHOSPHOKINASE [1]: 532.5 u/L | CREATININE [1]: 0.18 mg/dL | GLUCOSE [1]: 168.5 mg/dL | LACTATE DEHYDROGENASE [1]: 536.5 u/L | LIPASE [1]: 11.17 u/L | PHOSPHORUS [1]: 11.48 mg/dL | POTASSIUM [1]: 5.95 MEQ/L | SODIUM [1]: 140.5 MEQ/L | TOTAL BILIRUBIN [1]: 0.18 mg/dL | TOTAL PROTEIN [1]: 5.77 G/DL | URIC ACID [1]: 1.42 mg/dL | ABSOLUTE BASOPHIL [2]: 0 CELLS/uL | ABSOLUTE EOSINOPHIL [2]: 22.83 CELLS/uL | ABSOLUTE LYMPHOCYTE [2]: 12202.83 CELLS/uL | ABSOLUTE MONOCYTE [2]: 158 CELLS/uL | ABSOLUTE SEGMENTED NEUTROPHIL [2]: 1283 CELLS/uL | BASOPHIL [2]: 0% | EOSINOPHIL [2]: 0.17% | ERYTHROCYTE COUNT [2]: 5.88 x10E6/uL | HEMATOCRIT [2]: 36.62% | HEMOGLOBIN [2]: 14.07 G/DL | LEUKOCYTE COUNT [2]: 13.67 x10E3/uL | LYMPHOCYTE [2]: 89.5% | MEAN CORPUSCULAR HEMOGLOBIN [2]: 23.95 pg | MEAN CORPUSCULAR VOLUME [2]: 62.28 fL | MONOCYTE [2]: 1.17% | NEUTROPHIL [2]: 9.17% | NUCLEATED RED BLOOD CELLS [2]: 0.17 /100WBC | PLATELET COUNT [2]: 1198 x10E3/uL | ALANINE AMINOTRANSFERASE [2]: 51 u/L | ALBUMIN [2]: 4.3 G/DL | ALKALINE PHOSPHATASE [2]: 343 u/L | ASPARTATE AMINOTRANSFERASE [2]: 89.83 u/L | BLOOD UREA NITROGEN [2]: 17.67 mg/dL | CARBON DIOXIDE [2]: 27.17 mmol/L | CHLORIDE [2]: 98.33 MEQ/L | CHOLESTEROL [2]: 82.5 mg/dL | CREATINE PHOSPHOKINASE [2]: 533.33 u/L | CREATININE [2]: 0.18 mg/dL | GLUCOSE [2]: 152.67 mg/dL | LACTATE DEHYDROGENASE [2]: 220.33 u/L | LIPASE [2]: 11.5 u/L | PHOSPHORUS [2]: 11.25 mg/dL | POTASSIUM [2]: 6.29 MEQ/L | SODIUM [2]: 140.53 MEQ/L | TOTAL BILIRUBIN [2]: 0.22 mg/dL | TOTAL PROTEIN [2]: 6.12 G/DL | URIC ACID [2]: 1.42 mg/dL | ABSOLUTE BASOPHIL [3]: 0 CELLS/uL | ABSOLUTE EOSINOPHIL [3]: 92.33 CELLS/uL | ABSOLUTE LYMPHOCYTE [3]: 12247.5 CELLS/uL | ABSOLUTE MONOCYTE [3]: 389.67 CELLS/uL | ABSOLUTE SEGMENTED NEUTROPHIL [3]: 1320.5 CELLS/uL | BASOPHIL [3]: 0% | EOSINOPHIL [3]: 0.67% | ERYTHROCYTE COUNT [3]: 5.45 x10E6/uL | HEMATOCRIT [3]: 34.85% | HEMOGLOBIN [3]: 12.97 G/DL | LEUKOCYTE COUNT [3]: 14.05 x10E3/uL | LYMPHOCYTE [3]: 87.33% | MEAN CORPUSCULAR HEMOGLOBIN [3]: 23.78 pg | MEAN CORPUSCULAR VOLUME [3]: 63.93 fL | MONOCYTE [3]: 2.67% | NEUTROPHIL [3]: 9.33% | NUCLEATED RED BLOOD CELLS [3]: 0 /100WBC | PLATELET COUNT [3]: 1174 x10E3/uL | ALANINE AMINOTRANSFERASE [3]: 48.83 u/L | ALBUMIN [3]: 4.23 G/DL | ALKALINE PHOSPHATASE [3]: 351.5 u/L | ASPARTATE AMINOTRANSFERASE [3]: 90 u/L | BLOOD UREA NITROGEN [3]: 15.33 mg/dL | CARBON DIOXIDE [3]: 23 mmol/L | CHLORIDE [3]: 103.5 MEQ/L | CHOLESTEROL [3]: 70.5 mg/dL | CREATINE PHOSPHOKINASE [3]: 651.83 u/L | CREATININE [3]: 0.22 mg/dL | GLUCOSE [3]: 180.67 mg/dL | LACTATE DEHYDROGENASE [3]: 165 u/L | LIPASE [3]: 9.33 u/L | PHOSPHORUS [3]: 12.03 mg/dL | POTASSIUM [3]: 6.17 MEQ/L | SODIUM [3]: 142.62 MEQ/L | TOTAL BILIRUBIN [3]: 0.2 mg/dL | TOTAL PROTEIN [3]: 5.73 G/DL | URIC ACID [3]: 1.77 mg/dL | ABSOLUTE BASOPHIL [4]: 0 CELLS/uL | ABSOLUTE EOSINOPHIL [4]: 0 CELLS/uL | ABSOLUTE LYMPHOCYTE [4]: 12736.67 CELLS/uL | ABSOLUTE MONOCYTE [4]: 253.5 CELLS/uL | ABSOLUTE SEGMENTED NEUTROPHIL [4]: 1193.17 CELLS/uL | BASOPHIL [4]: 0% | EOSINOPHIL [4]: 0% | ERYTHROCYTE COUNT [4]: 5.72 x10E6/uL | HEMATOCRIT [4]: 36.05% | HEMOGLOBIN [4]: 13.62 G/DL | LEUKOCYTE COUNT [4]: 14.18 x10E3/uL | LYMPHOCYTE [4]: 89.33% | MEAN CORPUSCULAR HEMOGLOBIN [4]: 23.83 pg | MEAN CORPUSCULAR VOLUME [4]: 63.05 fL | MONOCYTE [4]: 1.83% | NEUTROPHIL [4]: 8.83% | NUCLEATED RED BLOOD CELLS [4]: 0 /100WBC | PLATELET COUNT [4]: 1322.17 x10E3/uL | ALANINE AMINOTRANSFERASE [4]: 48.83 u/L | ALBUMIN [4]: 4.27 G/DL | ALKALINE PHOSPHATASE [4]: 295.17 u/L | ASPARTATE AMINOTRANSFERASE [4]: 75.83 u/L | BLOOD UREA NITROGEN [4]: 15.5 mg/dL | CARBON DIOXIDE [4]: 30.5 mmol/L | CHLORIDE [4]: 102.33 MEQ/L | CHOLESTEROL [4]: 76.17 mg/dL | CREATINE PHOSPHOKINASE [4]: 205.5 u/L | CREATININE [4]: 0.2 mg/dL | GLUCOSE [4]: 149.67 mg/dL | LACTATE DEHYDROGENASE [4]: 124.5 u/L | LIPASE [4]: 10 u/L | PHOSPHORUS [4]: 10.93 mg/dL | POTASSIUM [4]: 6.59 MEQ/L | SODIUM [4]: 143.1 MEQ/L | TOTAL BILIRUBIN [4]: 0.2 mg/dL | TOTAL PROTEIN [4]: 6.05 G/DL | URIC ACID [4]: 1.45 mg/dL
